Laboratory results reported in PubChem BioAssay (NCI).
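A five-concentration, 48-hour dose response in 96-well plates underlies each endpoint, interpolated linearly between surrounding concentrations. The concentration for 50% growth inhibition is given as GI50. TGI: concentration producing complete growth inhibition.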

Columns and labels:
Assay in all cases: growth of human tumour cells (NCI), 48 h
[1] = tested on: DU-145 prostate
[2] = tested on: SNB-19 CNS
[3] = tested on: ACHN renal
[4] = tested on: NCI-H460 lung
[5] = tested on: SK-MEL-28 melanoma
[6] = tested on: SR leukemia
[7] = tested on: SK-MEL-2 melanoma
[8] = tested on: RXF 393 renal
[9] = tested on: T-47D breast
[10] = tested on: A549 NSCLC
[11] = tested on: MOLT-4 leukemia
[12] = tested on: COLO 205 colon
[13] = tested on: LOX IMVI melanoma
[14] = tested on: TK-10 renal
[15] = tested on: IGROV1 ovarian
[16] = tested on: 786-0 renal
[17] = tested on: MDA-MB-435
[18] = tested on: OVCAR-8 ovarian
[19] = tested on: UO-31 renal
[20] = tested on: SNB-75 CNS
[21] = tested on: SW-620 colon
[22] = tested on: BT-549 breast
[23] = tested on: OVCAR-3 ovarian
[24] = tested on: K-562 leukemia
[25] = tested on: UACC-62 melanoma
[26] = tested on: NCI/ADR-RES ovarian
[27] = tested on: SF-295 CNS
[28] = tested on: KM12 colon
[29] = tested on: PC-3 prostate
[30] = tested on: NCI-H522 lung
[31] = tested on: U251 CNS
[32] = tested on: HOP-92 NSCLC
[33] = tested on: SK-OV-3 ovarian
[34] = tested on: SF-268 CNS
[35] = tested on: SN12C renal
[36] = tested on: HT29 colon
[37] = tested on: MDA-MB-231 breast
[38] = tested on: SF-539 CNS
[39] = tested on: RPMI-8226 leukemia
[40] = tested on: NCI-H23 lung
[41] = tested on: MALME-3M melanoma
[42] = tested on: SK-MEL-5 melanoma
[43] = tested on: CAKI-1 renal
[44] = tested on: EKVX NSCLC
[45] = tested on: HCT-15 colon
[46] = tested on: M14 melanoma
[47] = tested on: HS 578T breast
[48] = tested on: HCC-2998 colon
[49] = tested on: CCRF-CEM leukemia
[50] = tested on: HCT-116 colon
[51] = tested on: HOP-62 NSCLC
[52] = tested on: A498 renal
[53] = tested on: NCI-H226 lung
[54] = tested on: UACC-257 melanoma
[55] = tested on: OVCAR-5 ovarian
[56] = tested on: OVCAR-4 ovarian
[57] = tested on: MCF7 breast

CCC(=O)OCC1OC(n2cnc3c(=S)nc(N)[nH]c32)C(OC(=O)CC)C1OC(=O)CC (centres undefined)
GI50 [1]: 2.51 µM
TGI [1]: 47.7 µM
GI50 [2]: 80.9 µM
TGI [2]: > 100 µM
GI50 [3]: 5.28 µM
TGI [3]: 93.1 µM
GI50 [4]: 6.62 µM
TGI [4]: > 100 µM
GI50 [5]: 37.5 µM
TGI [5]: > 100 µM
GI50 [6]: 0.828 µM
TGI [6]: > 100 µM
GI50 [7]: 2.89 µM
TGI [7]: 46.4 µM
GI50 [8]: 6.06 µM
TGI [8]: > 100 µM
GI50 [9]: 3.17 µM
TGI [9]: 43.8 µM
GI50 [10]: 71.8 µM
TGI [10]: > 100 µM
GI50 [11]: 5.31 µM
TGI [11]: > 100 µM
GI50 [12]: 3.57 µM
TGI [12]: 18.4 µM
GI50 [13]: 2.17 µM
TGI [13]: > 100 µM
GI50 [14]: 3.63 µM
TGI [14]: > 100 µM
GI50 [15]: 7.49 µM
TGI [15]: 44.5 µM
GI50 [16]: 8.09 µM
TGI [16]: > 100 µM
GI50 [17]: 4.73 µM
TGI [17]: > 100 µM
GI50 [18]: 7.1 µM
TGI [18]: > 100 µM
GI50 [19]: 1.97 µM
TGI [19]: 54.2 µM
GI50 [20]: 3 µM
TGI [20]: 88.9 µM
GI50 [21]: 16.3 µM
TGI [21]: > 100 µM
GI50 [22]: 5.42 µM
TGI [22]: > 100 µM
GI50 [23]: 3.03 µM
TGI [23]: 17.7 µM
GI50 [24]: 6.69 µM
TGI [24]: > 100 µM
GI50 [25]: 2.29 µM
TGI [25]: 14.4 µM
GI50 [26]: 14.8 µM
TGI [26]: > 100 µM
GI50 [27]: 5.27 µM
TGI [27]: > 100 µM
GI50 [28]: 6.06 µM
TGI [28]: 44.4 µM
GI50 [29]: 5.2 µM
TGI [29]: > 100 µM
GI50 [30]: 2.89 µM
TGI [30]: 18.6 µM
GI50 [31]: 21.5 µM
TGI [31]: > 100 µM
GI50 [32]: 0.892 µM
TGI [32]: 20.9 µM
GI50 [33]: 2.36 µM
TGI [33]: 14.5 µM
GI50 [34]: 3.95 µM
TGI [34]: > 100 µM
GI50 [35]: 12.4 µM
TGI [35]: > 100 µM
GI50 [36]: 14.7 µM
TGI [36]: > 100 µM
GI50 [37]: 5.44 µM
TGI [37]: > 100 µM
GI50 [38]: 4.88 µM
TGI [38]: 52.1 µM
GI50 [39]: 3.79 µM
TGI [39]: 67.2 µM
GI50 [40]: 9.73 µM
TGI [40]: > 100 µM
GI50 [41]: 2.45 µM
TGI [41]: > 100 µM
GI50 [42]: 13.9 µM
TGI [42]: 34 µM
GI50 [43]: 3.52 µM
TGI [43]: > 100 µM
GI50 [44]: 10.7 µM
TGI [44]: > 100 µM
GI50 [45]: 9.39 µM
TGI [45]: > 100 µM
GI50 [46]: 2.33 µM
TGI [46]: 24.6 µM
GI50 [47]: 23.8 µM
TGI [47]: > 100 µM
GI50 [48]: 15.2 µM
TGI [48]: 73.1 µM
GI50 [49]: 2.12 µM
TGI [49]: 28.2 µM
GI50 [50]: 4.25 µM
TGI [50]: > 100 µM
GI50 [51]: 2.71 µM
TGI [51]: 67.3 µM
GI50 [52]: 15.6 µM
TGI [52]: > 100 µM
GI50 [53]: 2.62 µM
TGI [53]: > 100 µM
GI50 [54]: 35.4 µM
TGI [54]: > 100 µM
GI50 [55]: 9.15 µM
TGI [55]: > 100 µM
GI50 [56]: 4.95 µM
TGI [56]: 81.3 µM
GI50 [57]: 3.57 µM
TGI [57]: 41.7 µM
